Values joined by “and” are separate entries in the source; they are usually repeats but may differ in a detail not shown here. Equal values may be shown once.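 Cultured in 96-well plates, cells were exposed to test compound for 48 hours across five concentrations. Here, GI50 denotes the concentration required for 50% inhibition of growth. The concentration for full growth arrest is given as TGI.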
What was measured:
Test in all cases: NCI tumour cell line growth inhibition, 48 h
DMS 114 small cell lung = system: DMS 114 small cell lung
PC-3 prostate = system: PC-3 prostate
CCRF-CEM leukemia = system: CCRF-CEM leukemia
SF-295 CNS = system: SF-295 CNS
SK-MEL-28 melanoma = system: SK-MEL-28 melanoma
HOP-18 NSCLC = system: HOP-18 NSCLC
DLD-1 colon = system: DLD-1 colon
M19-MEL melanoma = system: M19-MEL melanoma
MDA-MB-231 breast = system: MDA-MB-231 breast
IGROV1 ovarian = system: IGROV1 ovarian
OVCAR-5 ovarian = system: OVCAR-5 ovarian
HT29 colon = system: HT29 colon
MCF7 breast = system: MCF7 breast
HOP-92 NSCLC = system: HOP-92 NSCLC
UO-31 renal = system: UO-31 renal
OVCAR-8 ovarian = system: OVCAR-8 ovarian
NCI/ADR-RES ovarian = system: NCI/ADR-RES ovarian
HL-60(TB) leukemia = system: HL-60(TB) leukemia
MDA-MB-435 = system: MDA-MB-435
A498 renal = system: A498 renal
NCI-H226 lung = system: NCI-H226 lung
SK-OV-3 ovarian = system: SK-OV-3 ovarian
U251 CNS = system: U251 CNS
SF-539 CNS = system: SF-539 CNS
OVCAR-3 ovarian = system: OVCAR-3 ovarian
COLO 205 colon = system: COLO 205 colon
SNB-75 CNS = system: SNB-75 CNS
UACC-257 melanoma = system: UACC-257 melanoma
KM20L2 colon = system: KM20L2 colon
LOX IMVI melanoma = system: LOX IMVI melanoma
SW-620 colon = system: SW-620 colon
HS 578T breast = system: HS 578T breast
RPMI-8226 leukemia = system: RPMI-8226 leukemia
SK-MEL-5 melanoma = system: SK-MEL-5 melanoma
CAKI-1 renal = system: CAKI-1 renal
ACHN renal = system: ACHN renal
SR leukemia = system: SR leukemia
NCI-H23 lung = system: NCI-H23 lung
LXFL 529 NSCLC = system: LXFL 529 NSCLC
M14 melanoma = system: M14 melanoma
BT-549 breast = system: BT-549 breast
SK-MEL-2 melanoma = system: SK-MEL-2 melanoma
SNB-19 CNS = system: SNB-19 CNS
K-562 leukemia = system: K-562 leukemia
786-0 renal = system: 786-0 renal
T-47D breast = system: T-47D breast
OVCAR-4 ovarian = system: OVCAR-4 ovarian
DMS 273 small cell lung = system: DMS 273 small cell lung
MALME-3M melanoma = system: MALME-3M melanoma
HCC-2998 colon = system: HCC-2998 colon
SF-268 CNS = system: SF-268 CNS
SNB-78 CNS = system: SNB-78 CNS
TK-10 renal = system: TK-10 renal
KM12 colon = system: KM12 colon
MOLT-4 leukemia = system: MOLT-4 leukemia
DU-145 prostate = system: DU-145 prostate
NCI-H522 lung = system: NCI-H522 lung
HCT-116 colon = system: HCT-116 colon
A549 NSCLC = system: A549 NSCLC
HCT-15 colon = system: HCT-15 colon
NCI-H460 lung = system: NCI-H460 lung
RXF 393 renal = system: RXF 393 renal
HOP-62 NSCLC = system: HOP-62 NSCLC
UACC-62 melanoma = system: UACC-62 melanoma
SN12C renal = system: SN12C renal

In the case of `O=C(NC(Cc1ccccc1)C(=O)CCl)OCc1ccccc1` (configuration not stated), the TGI (DMS 114 small cell lung) is reported as 4.66 µM, the GI50 (PC-3 prostate) is reported as 6.13 µM and the TGI (PC-3 prostate) is reported as 20.3 µM. For the same compound, the GI50 (CCRF-CEM leukemia) was 2340 nM, the TGI (CCRF-CEM leukemia) was 13.8 µM and 11.6 µM and the TGI (SF-295 CNS) was 33 µM and 29.2 µM. The GI50 (SK-MEL-28 melanoma) was 5.55 µM, the TGI (SK-MEL-28 melanoma) was 19.3 µM and 25.3 µM and the TGI (HOP-18 NSCLC) was 24 µM. The TGI (DLD-1 colon) was 21.5 µM, the TGI (M19-MEL melanoma) was 27.3 µM and the GI50 (MDA-MB-231 breast) was 7.02 µM. The TGI (MDA-MB-231 breast) was 20.7 µM, the GI50 (IGROV1 ovarian) was 2980 nM and the TGI (IGROV1 ovarian) was 13.6 µM and 27.3 µM. For the same compound, the GI50 (OVCAR-5 ovarian) was 5.64 µM, the TGI (OVCAR-5 ovarian) was 18.5 µM and 24.2 µM and the GI50 (HT29 colon) was 3.53 µM. For the same compound, the TGI (HT29 colon) was 16.5 µM and 37.3 µM, the GI50 (MCF7 breast) was 2960 nM and the TGI (MCF7 breast) was 13.5 µM. For the same compound, the TGI (HOP-92 NSCLC) was 28.3 µM, the GI50 (UO-31 renal) was 3.91 µM and the TGI (UO-31 renal) was 16.4 µM and 25.6 µM. For the same compound, the TGI (OVCAR-8 ovarian) was 15 µM and 17.6 µM, the GI50 (NCI/ADR-RES ovarian) was 6 µM and the TGI (NCI/ADR-RES ovarian) was 53.7 µM. For the same compound, the GI50 (HL-60(TB) leukemia) was 14.3 µM, the TGI (HL-60(TB) leukemia) was 43.1 µM and 13.4 µM and the GI50 (MDA-MB-435) was 3.59 µM. For the same compound, the TGI (MDA-MB-435) was 14.3 µM, the GI50 (A498 renal) was 10.2 µM and the TGI (A498 renal) was 23 µM and 27.6 µM. For the same compound, the GI50 (NCI-H226 lung) was 13.4 µM, the TGI (NCI-H226 lung) was 55.5 µM and the GI50 (SK-OV-3 ovarian) was 11.9 µM. For the same compound, the TGI (SK-OV-3 ovarian) was 29.7 µM and 27.6 µM, the GI50 (U251 CNS) was 6.97 µM and the TGI (U251 CNS) was 19.6 µM and 22.8 µM. The GI50 (SF-539 CNS) was 3000 nM, the TGI (SF-539 CNS) was 10.3 µM and 16.8 µM and the GI50 (OVCAR-3 ovarian) was 3.65 µM. The TGI (OVCAR-3 ovarian) was 11.8 µM and 18.7 µM, the GI50 (COLO 205 colon) was 10 µM and the TGI (COLO 205 colon) was 24.1 µM and 24 µM. For the same compound, the GI50 (SNB-75 CNS) was 4.77 µM, the TGI (SNB-75 CNS) was 18.9 µM and 30.2 µM and the TGI (UACC-257 melanoma) was 26.7 µM and 26.2 µM. The TGI (KM20L2 colon) was 20.2 µM, the GI50 (LOX IMVI melanoma) was 1300 nM and the TGI (LOX IMVI melanoma) was 3.12 µM and 7.49 µM. The GI50 (SW-620 colon) was 1910 nM, the TGI (SW-620 colon) was 5.23 µM and 15.8 µM and the GI50 (HS 578T breast) was 6.23 µM. The TGI (HS 578T breast) was 36 µM, the GI50 (RPMI-8226 leukemia) was 2440 nM and the GI50 (SK-MEL-5 melanoma) was 4.38 µM. For the same compound, the TGI (SK-MEL-5 melanoma) was 16.9 µM and 26.4 µM, the GI50 (CAKI-1 renal) was 7.52 µM and the TGI (CAKI-1 renal) was 21.2 µM and 17.3 µM. For the same compound, the GI50 (ACHN renal) was 3.72 µM, the TGI (ACHN renal) was 13.3 µM and 21.8 µM and the GI50 (SR leukemia) was 2230 nM. The TGI (SR leukemia) was > 100 µM, the GI50 (NCI-H23 lung) was 10.5 µM and the TGI (NCI-H23 lung) was 30.7 µM and 26.1 µM. For the same compound, the TGI (LXFL 529 NSCLC) was 13.9 µM, the GI50 (M14 melanoma) was 4.69 µM and the TGI (M14 melanoma) was 19.2 µM and 23 µM. It also gave a GI50 (BT-549 breast) of 2310 nM, a TGI (BT-549 breast) of 6 µM and a GI50 (SK-MEL-2 melanoma) of 1960 nM. The TGI (SK-MEL-2 melanoma) was 4.89 µM and 22 µM, the TGI (SNB-19 CNS) was 25.3 µM and 25.1 µM and the GI50 (K-562 leukemia) was 2650 nM. The TGI (K-562 leukemia) was > 100 µM and 40.1 µM, the TGI (786-0 renal) was 14.7 µM and 16.6 µM and the GI50 (T-47D breast) was 3.37 µM. It also gave a TGI (T-47D breast) of 16.7 µM, a GI50 (OVCAR-4 ovarian) of 2040 nM and a TGI (OVCAR-4 ovarian) of 13.5 µM. The TGI (DMS 273 small cell lung) was 16.4 µM, the GI50 (MALME-3M melanoma) was 1930 nM and the TGI (MALME-3M melanoma) was 6.7 µM and 23.8 µM. The GI50 (HCC-2998 colon) was 12.3 µM, the TGI (HCC-2998 colon) was 28.8 µM and 32.2 µM and the GI50 (SF-268 CNS) was 4.36 µM. For the same compound, the TGI (SF-268 CNS) was 16.3 µM and 26.3 µM, the TGI (SNB-78 CNS) was 50 µM and the GI50 (TK-10 renal) was 2580 nM. The TGI (TK-10 renal) was 9.43 µM and 28.4 µM, the TGI (KM12 colon) was 22.2 µM and 21.7 µM and the GI50 (MOLT-4 leukemia) was 3.56 µM. It also gave a TGI (MOLT-4 leukemia) of 25.4 µM, a GI50 (DU-145 prostate) of 10.9 µM and a TGI (DU-145 prostate) of 22.9 µM. For the same compound, the GI50 (NCI-H522 lung) was 1360 nM, the TGI (NCI-H522 lung) was 3.43 µM and 4.31 µM and the GI50 (HCT-116 colon) was 1650 nM. For the same compound, the TGI (HCT-116 colon) was 3.32 µM and 26.5 µM, the GI50 (A549 NSCLC) was 13.9 µM and the TGI (A549 NSCLC) was 33.9 µM and 36.2 µM. The GI50 (HCT-15 colon) was 2320 nM, the TGI (HCT-15 colon) was 8.56 µM and 17.8 µM and the GI50 (NCI-H460 lung) was 4.34 µM. The TGI (NCI-H460 lung) was 17.4 µM and 19.8 µM, the GI50 (RXF 393 renal) was 3.62 µM and the TGI (RXF 393 renal) was 14.2 µM. For the same compound, the TGI (HOP-62 NSCLC) was 30.6 µM and 29.4 µM, the GI50 (UACC-62 melanoma) was 4.52 µM and the TGI (UACC-62 melanoma) was 17.7 µM and 21.2 µM. For the same compound, the TGI (SN12C renal) was 17.7 µM and 20.3 µM.

From PubChem BioAssay (NCI)
